{"source": "patent US20140056804A1", "about": "“PHARMACEUTICAL COMPOUND WHICH INCLUDES CLINOPTILOLITE” (priority 2008, published 2014)", "origin": "cited, not measured here", "settings": "NSAIDs such as naproxen"}
{"smiles": "COc1ccc2cc([C@H](C)C(=O)O)ccc2c1", "note": "[naproxen]", "values": [{"measurement": "patients with non-symptomatic mucosal breaks", "value": "~80", "unit": "%"}]}
